Measured values published in patent publication US20210052524A1, “N-ACETYLCYSTEINE AND UREA-BASED FORMULATION FOR THE TREATMENT OF DERMATOLOGICAL DISORDERS” (DERMALENA DI CALDERAN ANDREA, priority 2017, published 2021).

Experiments:
[1] = tested on: abdominal incisional wound subjected to radiation; conditions: oral and intra-peritoneal administration, model subjected to radiation; cited from earlier work
[2] = Stability of the active ingredients in the formulation buffered to pH 5.5-6.5; format: physicochemical; conditions: pH 5.5-6.5 (lactic acid neutralized with sodium hydroxide) compared to more acidic or more basic conditions
From the text: Preferably, the present formulation for topical use is in the form of a cream or a lotion, and preferably has a pH between 5.5 and 6.5, advantageously about 6.

[3] = tested on: complex regional pain syndrome type I; conditions: 50% DMSO applied topically, N-acetylcysteine taken orally; cited from earlier work

Compound	effect on histological, biochemical and mechanical parameters of incisional wound healing [1]	stability [2]	efficacy in the treatment of complex regional pain syndrome type I [3]
CC(=O)N[C@@H](CS)C(=O)O [N-acetylcysteine]	effectiveness	improved	equally efficient
C[S+](C)[O-] [50% DMSO, DMSO]			equally efficient
NC(N)=O [urea]		improved	
